Laboratory results published in US20060069132A1, “Azolecarboxamide herbicides” (priority 2004, published 2006).
Read-outs that look alike come from different tables or passages of the source.

Key:
[1] = tested on: wheat; experiment: Test B postemergence herbicide test; assay type: in vivo, Triticum aestivum; conditions: Triticum aestivum, post-emergence, 336 h, postemergence, visual rating, scale 0 (no effect) to 100 (complete control), read-out: Wheat plant response rating
Method in brief: (§1)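 Treated at 2-leaf (paddy) or 1–4-leaf, 2–18 cm (postemergence); greenhouse 13–15 d; visual score vs control, 0 none to 100 complete control; dash = not tested.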

[2] = tested on: giant foxtail; experiment: Test B pre-/postemergence herbicide test; assay type: in vivo, Setaria faberi; conditions: Setaria faberi, 336 h; for pest or weed control at 125 g/ha: 125 g ai/ha; for pest or weed control at 500 g/ha: 500 g ai/ha
Method in brief: (§2)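 Flooded paddy rice and barnyardgrass were treated at the 2-leaf stage; upland plantings received compound either on sown seed or on 1- to 4-leaf seedlings. All were kept 13–15 days in a greenhouse and scored visually, 0–100, relative to untreated plants.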

[3] = tested on: large crabgrass; experiment: Test B pre-/postemergence herbicide test; assay type: in vivo, Digitaria sanguinalis; conditions: Digitaria sanguinalis; for pest or weed control at 125 g/ha: 125 g ai/ha; for pest or weed control at 500 g/ha: 500 g ai/ha
Method in brief: as §2

[4] = tested on: corn; experiment: Test B pre-/postemergence herbicide test; assay type: in vivo, Zea mays; conditions: Zea mays; for plant injury at 125 g/ha: 125 g ai/ha
Method in brief: as §2

[5] = tested on: pigweed; experiment: Test B pre-/postemergence herbicide test; assay type: in vivo, Amaranthus retroflexus; conditions: Amaranthus retroflexus, 336 h; for pest or weed control at 125 g/ha: 125 g ai/ha; for pest or weed control at 500 g/ha: 500 g ai/ha
Method in brief: as §2

[6] = tested on: small flower umbrella sedge; experiment: Test B flooded paddy test; assay type: in vivo, Cyperus difformis; conditions: Cyperus difformis, 336 h, 1000 g ai/ha, visual rating, scale 0 to 100 (0 no effect, 100 complete control), 13 to 15 days, read-out: Sedge, Umbrella plant response rating
Method in brief: (§3)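 Plants grow to 1- to 4-leaf stage (2–18 cm) for postemergence spraying, or to 2-leaf stage for the paddy test. Formulated compound is applied. Greenhouse holding lasts 13–15 days. Response is scored visually relative to controls, 0 no effect to 100 complete control; a dash means no result.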

[7] = tested on: barnyardgrass; experiment: Test B pre-/postemergence herbicide test; assay type: in vivo, Echinochloa crus-galli; conditions: Echinochloa crus-galli; for pest or weed control at 125 g/ha: 125 g ai/ha; for pest or weed control at 500 g/ha: 500 g ai/ha
Method in brief: (§4)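 Species tested were Echinochloa crus-galli, Ipomoea coccinea, Xanthium strumarium and Oryza sativa, treated both before emergence and at the 1- to 4-leaf stage; rice and barnyardgrass were also tested under flooding at 2 leaves. Greenhouse incubation lasted 13–15 days before visual 0–100 scoring.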

[8] = tested on: rice; experiment: Test B flooded paddy test; assay type: in vivo, Oryza sativa; conditions: Oryza sativa, 336 h, 1000 g ai/ha, visual rating, scale 0 to 100 (0 no effect, 100 complete control), 13 to 15 days, read-out: Rice plant response rating
Method in brief: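 After treating 2-leaf paddy plants or 2–18 cm postemergence plants (1 to 4 leaves) with formulated chemical, researchers kept them in a greenhouse for 13–15 days. Effects were judged visually versus controls: 0 indicates none, 100 total control.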

[9] = tested on: lambsquarters; experiment: Test B pre-/postemergence herbicide test; assay type: in vivo, Chenopodium album; conditions: Chenopodium album, 336 h; for pest or weed control at 125 g/ha: 125 g ai/ha; for pest or weed control at 500 g/ha: 500 g ai/ha
Method in brief: as §2

[10] = tested on: morningglory; experiment: Test B pre-/postemergence herbicide test; assay type: in vivo, Ipomoea coccinea; conditions: Ipomoea, 336 h; for pest or weed control at 125 g/ha: 125 g ai/ha; for pest or weed control at 500 g/ha: 500 g ai/ha
Method in brief: as §4

[11] = tested on: cocklebur; experiment: Test B pre-/postemergence herbicide test; assay type: in vivo, Xanthium strumarium; conditions: Xanthium strumarium; for pest or weed control at 125 g/ha: 125 g ai/ha; for pest or weed control at 500 g/ha: 500 g ai/ha
Method in brief: as §4

[12] = tested on: Surinam grass; experiment: Test B pre-/postemergence herbicide test; assay type: in vivo, Urochloa decumbens; conditions: Urochloa decumbens; for pest or weed control at 125 g/ha: 125 g ai/ha; for pest or weed control at 500 g/ha: 500 g ai/ha
Method in brief: as §2

[13] = tested on: barnyardgrass; experiment: Test B flooded paddy test; assay type: in vivo, Echinochloa crus-galli; conditions: Echinochloa crus-galli, 336 h, 1000 g ai/ha, visual rating, scale 0 to 100 (0 no effect, 100 complete control), 13 to 15 days, read-out: Barnyardgrass plant response rating
Method in brief: as §3

[14] = tested on: ducksalad; experiment: Test B flooded paddy test; assay type: in vivo, Heteranthera limosa; conditions: Heteranthera limosa, 336 h, 1000 g ai/ha, visual rating, scale 0 to 100 (0 no effect, 100 complete control), 13 to 15 days, read-out: Ducksalad plant response rating
Method in brief: as §3

[15] = tested on: blackgrass; experiment: Test B postemergence herbicide test; assay type: in vivo, Alopecurus myosuroides; conditions: Alopecurus myosuroides, post-emergence, 336 h, postemergence, visual rating, scale 0 (no effect) to 100 (complete control), read-out: Blackgrass plant response rating
Method in brief: as §3

[16] = tested on: wild oat; experiment: Test B postemergence herbicide test; assay type: in vivo, Avena fatua; conditions: Avena fatua, post-emergence, 336 h, postemergence, visual rating, scale 0 (no effect) to 100 (complete control), read-out: Oat, Wild plant response rating
Method in brief: as §1

[17] = post-emergence, postemergence, visual rating, scale 0 (no effect) to 100 (complete control), read-out: Foxtail, Giant plant response rating
[18] = post-emergence, postemergence, visual rating, scale 0 (no effect) to 100 (complete control), read-out: Crabgrass, Large plant response rating
[19] = post-emergence, postemergence, visual rating, scale 0 (no effect) to 100 (complete control), read-out: Pigweed plant response rating
[20] = post-emergence, postemergence, visual rating, scale 0 (no effect) to 100 (complete control), read-out: Barnyardgrass plant response rating
[21] = post-emergence, postemergence, visual rating, scale 0 (no effect) to 100 (complete control), read-out: Lambsquarters plant response rating
[22] = post-emergence, postemergence, visual rating, scale 0 (no effect) to 100 (complete control), read-out: Morningglory plant response rating
[23] = post-emergence, postemergence, visual rating, scale 0 (no effect) to 100 (complete control), read-out: Cocklebur plant response rating
[24] = post-emergence, postemergence, visual rating, scale 0 (no effect) to 100 (complete control), read-out: Surinam Grass plant response rating

SMILES: CCc1nn(C(C)(C)C)cc1C(=O)Nc1cccc(C(=O)N(CC)CC)c1 [Compound 182, N-[3-[(diethylamino)carbonyl]phenyl]-1-(1,1-dimethylethyl)-3-ethyl-1H-pyrazole-4-carboxamide]
- plant injury at 125 g/ha ([1]; 125 g ai/ha): 0%
- plant injury at 500 g/ha ([1]; 500 g ai/ha): 10%
- pest or weed control at 125 g/ha [2, 17]: 0%
- pest or weed control at 500 g/ha [2, 17]: 20%
- pest or weed control at 125 g/ha ([2]; pre-emergence, 0 = no effect, 100 = complete control, read-out: Foxtail, Giant plant response rating (0 to 100 scale)): 30%
- pest or weed control at 500 g/ha ([2]; pre-emergence, visual rating 0-100, 0 no effect, 100 complete control, read-out: Plant response rating, Foxtail, Giant): 100%
- pest or weed control at 125 g/ha [3, 18]: 20%
- pest or weed control at 500 g/ha [3, 18]: 30%
- pest or weed control at 125 g/ha ([3]; pre-emergence, 0 = no effect, 100 = complete control, read-out: Crabgrass, Large plant response rating (0 to 100 scale)): 70%
- pest or weed control at 500 g/ha ([3]; pre-emergence, visual rating 0-100, 0 no effect, 100 complete control, read-out: Plant response rating, Crabgrass, Large): 100%
- plant injury at 125 g/ha ([4]; post-emergence, postemergence, visual rating, scale 0 (no effect) to 100 (complete control), read-out: Corn plant response rating): 30%
- plant injury at 500 g/ha ([4]; post-emergence, postemergence, 500 g ai/ha, visual rating, scale 0 (no effect) to 100 (complete control), read-out: Corn plant response rating): 30%
- plant injury at 125 g/ha ([4]; pre-emergence, 0 = no effect, 100 = complete control, read-out: Corn plant response rating (0 to 100 scale)): 0%
- Corn plant response rating (crop injury, 0 = no effect, 100 = complete kill) at 500 g/ha ([4]; pre-emergence, 500 g ai/ha, visual rating 0-100, 0 no effect, 100 complete control): 0%
- pest or weed control at 125 g/ha [5, 19]: 50%
- pest or weed control at 500 g/ha [5, 19]: 70%
- pest or weed control at 125 g/ha ([5]; pre-emergence, 0 = no effect, 100 = complete control, read-out: Pigweed plant response rating (0 to 100 scale)): 100%
- pest or weed control at 500 g/ha ([5]; pre-emergence, visual rating 0-100, 0 no effect, 100 complete control, read-out: Plant response rating, Pigweed): 100%
- pest or weed control at 1000 g/ha [6]: 80%
- pest or weed control at 125 g/ha [7, 20]: 30%
- pest or weed control at 500 g/ha [7, 20]: 50%
- pest or weed control at 125 g/ha ([7]; pre-emergence, 0 = no effect, 100 = complete control, read-out: Barnyardgrass plant response rating (0 to 100 scale)): 20%
- pest or weed control at 500 g/ha ([7]; pre-emergence, visual rating 0-100, 0 no effect, 100 complete control, read-out: Plant response rating, Barnyardgrass): 80%
- plant injury at 1000 g/ha [8]: 0%
- pest or weed control at 125 g/ha [9, 21]: 60%
- pest or weed control at 500 g/ha [9, 21]: 70%
- pest or weed control at 125 g/ha ([9]; pre-emergence, 0 = no effect, 100 = complete control, read-out: Lambsquarters plant response rating (0 to 100 scale)): 20%
- pest or weed control at 500 g/ha ([9]; pre-emergence, visual rating 0-100, 0 no effect, 100 complete control, read-out: Plant response rating, Lambsquarters): 100%
- pest or weed control at 125 g/ha [10, 22]: 50%
- pest or weed control at 500 g/ha [10, 22]: 70%
- pest or weed control at 125 g/ha ([10]; pre-emergence, 0 = no effect, 100 = complete control, read-out: Morningglory plant response rating (0 to 100 scale)): 10%
- pest or weed control at 500 g/ha ([10]; pre-emergence, visual rating 0-100, 0 no effect, 100 complete control, read-out: Plant response rating, Morningglory): 30%
- pest or weed control at 125 g/ha [11, 23]: 50%
- pest or weed control at 500 g/ha [11, 23]: 60%
- pest or weed control at 125 g/ha ([11]; pre-emergence, 0 = no effect, 100 = complete control, read-out: Cocklebur plant response rating (0 to 100 scale)): 0%
- pest or weed control at 500 g/ha ([11]; pre-emergence, visual rating 0-100, 0 no effect, 100 complete control, read-out: Plant response rating, Cocklebur): 0%
- pest or weed control at 125 g/ha [12, 24]: 10%
- pest or weed control at 500 g/ha [12, 24]: 20%
- pest or weed control at 125 g/ha ([12]; pre-emergence, 0 = no effect, 100 = complete control, read-out: Surinam Grass plant response rating (0 to 100 scale)): 20%
- pest or weed control at 500 g/ha ([12]; pre-emergence, visual rating 0-100, 0 no effect, 100 complete control, read-out: Plant response rating, Surinam Grass): 60%
- pest or weed control at 1000 g/ha [13]: 40%
- pest or weed control at 1000 g/ha [14]: 60%
- pest or weed control at 125 g/ha ([15]; 125 g ai/ha): 0%
- pest or weed control at 500 g/ha ([15]; 500 g ai/ha): 0%
- pest or weed control at 125 g/ha ([16]; 125 g ai/ha): 20%
- pest or weed control at 500 g/ha ([16]; 500 g ai/ha): 30%
